Columns and labels:
Lck (p56^kk, active) = biological target: T1, Lck (p56^kk, active) (Homo sapiens, UniProt P06239); test: SRC-Inhibitor-Assay, time-resolved fluorescence kinase assay (Lck); format: biochemical; conditions: ATP 5 μM; enzyme pre-incubated with inhibitor 15 min at 15° C.
T1 construct: purchased UBI, Upstate Biotech, Inc
Description: (§1) The activity of the compounds according to this invention as inhibitors for the src-family tyrosine kinases was shown by using the following assay. • SRC-Inhibitor-Assay Parameters: • Reaction mixture: • ATP 5 μM • Peptide (Ro+Ja133-Ro): 10 μM • Ja133-Ro 196 nM • Ro 9.8 μM • PT66 230 ng/ml • Assay buffer: 4 mM MgCl2 • 2 mM TCEP • 50 mM HEPES • 0.1% Tween 20 • pH 7.3 • Enzyme: 2.5 U/ml • Inhibitor: max. 25 μM • min. 0.42 nM
(§2) Material: • Eu-labelled phosphotyrosine antibody: for Lck Cisbio Mab PT66-K, • for Src EG&G Wallac PT66 Eu-W1024 (all commercially available). • Peptides: Ro: NH2-A-E-E-E-I-Y-G-E-F-E-A-K-K-K-K-CONH2, and • Ja133-Ro: Ja133-G-Aminocaprylic acid-A-E-E-E-I-Y-G-E-F-E-A-K-K-K-K-CONH2, wherein Ja133 is LightCycler-Red 640-N-hydroxy succinimide ester; • whereby both peptides were synthesized by an optimized solid phase peptide synthesis protocol (Merrifield, Fed. Proc. Fed. Amer. Soc. Exp. Biol. 21 (1962) 412) on a Zinsser SMP350 peptide synthesizer. Shortly, the peptide was assembled on 160 mg (22.8 μmol scale) of a Rink-Linker modified polystyrene solid phase by repeatedly conjugating an twenty fold excess of amino acids each protected by temporary piperidine labile Fmoc- and permanent acid labile tert-Bu-, BOC- and O-tert-Bu-groups depending on the side chain function. The substrate sequence AEEEIYGEFEAKKKK was N-terminal additionally mounted with the spacer amino acids Aminocaprylic acid and Glycin. After cleavage of the N-terminal temporary protecting group the still attached and protected peptide was labeled with a 1.5 fold amount of LightCycler-Red 640-N-hydroxy succinimide ester (purchased from Roche Diagnostics GmbH) and triethylamine. After 3 hrs. the resin was washed with Dimethylformamide and Isopropanol until the eluates of the blue resin got colourless. […] The substrate was finally isolated by a preparative reverse phase HPLC purification.
(§3) The purification yielded 12.2 mg RP-HPLC single peak pure blue material (lyophilisate). The identity was proven by MALDI mass spectroscopy [2720.0]. • Enzymes: Upstate Lck (p56^kk, active), Upstate Src (p60^c-src, partially purified) were purchased from UBI, Upstate Biotech, Inc.
(§4) Time-resolved Fluorescence Assay: Reader: Perkin Elmer, Wallac Viktor 1420-040 multilabel counter; Liquid handling system: Beckman Coulter, Biomek 2000.
(§5) ATP, Tween™ 20, 4-(2-hydroxyethyl)-1-piperazineethanesulfonic acid (HEPES) were purchased from Roche Molecular Biochemicals, MgCl2 and MnCl2 were purchased from Merck Eurolab, Tris(2-carboxyethyl)phosphine hydrochloride (TCEP) was purchased from Pierce, 384 Well low volume fluorescence plates was purchased from Falcon.
(§6) At first the enzyme is pre-incubated for 15 min. at 15° C. in aqueous solution with corresponding amounts of inhibitors according to this invention. Then the phosphorylation reaction is started by adding a reaction mixture, containing ATP, Peptide and PT66, and subsequent shaking. The proceeding of this reaction is immediately monitored using time resolved fluorescence spectroscopy in a suitable well plate reader.
(§7) The IC50-values can be obtained from the reaction rates by using a non-linear curve fit (XLfit software (ID Business Solution Ltd., Guilford, Surrey, UK))

[1] = biological target: T2, Src (p60^c-src, partially purified) (Homo sapiens, UniProt P12931); test: SRC-Inhibitor-Assay, time-resolved fluorescence kinase assay (Src); format: biochemical; conditions: ATP 5 μM; enzyme pre-incubated with inhibitor 15 min at 15° C.
T2 construct: purchased UBI, Upstate Biotech, Inc
T2 sequence (P12931 whole entry, species assumed): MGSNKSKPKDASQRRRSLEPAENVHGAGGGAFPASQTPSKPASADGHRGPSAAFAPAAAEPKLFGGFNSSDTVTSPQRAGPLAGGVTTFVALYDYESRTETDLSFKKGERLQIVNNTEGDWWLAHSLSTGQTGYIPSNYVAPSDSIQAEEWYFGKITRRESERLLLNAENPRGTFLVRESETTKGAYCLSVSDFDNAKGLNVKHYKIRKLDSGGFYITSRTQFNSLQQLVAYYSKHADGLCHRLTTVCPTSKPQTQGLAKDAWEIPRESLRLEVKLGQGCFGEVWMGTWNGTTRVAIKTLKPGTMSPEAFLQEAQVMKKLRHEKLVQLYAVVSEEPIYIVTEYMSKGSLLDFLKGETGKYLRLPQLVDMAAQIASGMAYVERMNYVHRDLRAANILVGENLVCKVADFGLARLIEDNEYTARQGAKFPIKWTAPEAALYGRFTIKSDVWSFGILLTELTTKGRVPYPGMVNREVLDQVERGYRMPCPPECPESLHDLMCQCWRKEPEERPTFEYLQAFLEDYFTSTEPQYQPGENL
Description: as §1, §2, §3, §4, §5, §6, §7

T1 sequence (P06239 whole entry, species assumed): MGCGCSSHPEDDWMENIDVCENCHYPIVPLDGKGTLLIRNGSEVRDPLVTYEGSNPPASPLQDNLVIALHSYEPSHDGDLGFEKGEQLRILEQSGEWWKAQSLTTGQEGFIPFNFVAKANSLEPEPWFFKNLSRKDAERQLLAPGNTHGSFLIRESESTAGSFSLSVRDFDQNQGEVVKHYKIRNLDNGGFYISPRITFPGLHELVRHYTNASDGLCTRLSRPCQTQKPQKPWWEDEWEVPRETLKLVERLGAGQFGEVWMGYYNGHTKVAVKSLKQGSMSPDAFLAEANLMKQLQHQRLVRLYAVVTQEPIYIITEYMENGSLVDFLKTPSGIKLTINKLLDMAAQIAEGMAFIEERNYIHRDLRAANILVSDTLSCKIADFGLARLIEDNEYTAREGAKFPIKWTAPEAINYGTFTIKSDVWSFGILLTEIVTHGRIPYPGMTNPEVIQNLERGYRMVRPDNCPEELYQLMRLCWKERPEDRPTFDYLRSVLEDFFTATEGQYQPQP

IC50 (Lck (p56^kk, active)) | IC50 [1] | SMILES
50 to 150 nM | 50 to 150 nM | CN1C(=O)N(c2cc(NC(=O)c3ccc(-c4ccc[nH]4)cc3)ccc2Cl)Cc2cnc(N)nc21 [Example 2-24, N-[3-(7-Amino-1-methyl-2-oxo-1,4-dihydro-2H-pyrimido[4,5-d]pyrimidin-3-yl)-4-chloro-phenyl]-4-(1H-pyrrol-2-yl)-benzamide]
50 to 150 nM | 50 to 150 nM | CN1C(=O)N(c2cc(NC(=O)c3ccc(-c4ccccn4)cc3)ccc2Cl)Cc2cnc(N)nc21 [Example 2-22, N-[3-(7-Amino-1-methyl-2-oxo-1,4-dihydro-2H-pyrimido[4,5-d]pyrimidin-3-yl)-4-chloro-phenyl]-4-pyridin-2-yl-benzamide]

Continued, compound first:

SMILES | IC50 (Lck (p56^kk, active)) | IC50 [1]
CN1C(=O)N(c2cc(NC(=O)c3cccc(-c4ccccc4)c3)ccc2Cl)Cc2cnc(N)nc21 [Example 2-3, Biphenyl-3-carboxylic acid [3-(7-amino-1-methyl-2-oxo-1,4-dihydro-2H-pyrimido[4,5-d]pyrimidin-3-yl)-4-chloro-phenyl]-amide] | 50 to 150 nM | 50 to 150 nM
CN1C(=O)N(c2cc(NC(=O)c3cccc4ccccc34)ccc2Cl)Cc2cnc(N)nc21 [Example 2-15, Naphthalene-1-carboxylic acid [3-(7-amino-1-methyl-2-oxo-1,4-dihydro-2H-pyrimido[4,5-d]pyrimidin-3-yl)-4-chloro-phenyl]-amide] | 50 to 150 nM | 50 to 150 nM
CN1C(=O)N(c2cc(NC(=O)c3ccc(N4CCOCC4)cc3)ccc2Cl)Cc2cnc(N)nc21 [Example 2-7, N-[3-(7-Amino-1-methyl-2-oxo-1,4-dihydro-2H-pyrimido[4,5-d]pyrimidin-3-yl)-4-chloro-phenyl]-4-morpholin-4-yl-benzamide] | 168 nM | 73.5 nM
CN1C(=O)N(c2cc(NC(=O)C=Cc3ccccc3)ccc2Cl)Cc2cnc(N)nc21 [Example 2-14, N-[3-(7-Amino-1-methyl-2-oxo-1,4-dihydro-2H-pyrimido[4,5-d]pyrimidin-3-yl)-4-chloro-phenyl]-3-phenyl-acrylamide] | 38.5 nM | 41 nM
CN1C(=O)N(c2cc(NC(=O)c3ccc(-c4ccccc4)cc3)ccc2Cl)Cc2cnc(N)nc21 [Example 1, Biphenyl-4-carboxylic acid[3-(7-amino-1-methyl-2-oxo-1,4-dihydro-2H-pyrimido[4,5-d]pyrimidin-3-yl)-4-chloro-phenyl]-amide] | 50 to 150 nM | 50 to 150 nM

Reference: US7494993B2, “Amide derivatives of 7-amino-3-phenyl-dihydropyrimido[4,5-d]pyrimidinones, their manufacture and use as pharmaceutical agents” (Hoffmann-La Roche Inc., priority 2004, dated 2009)
